# From US9428519B2, “Acylated derivative of homoharringtonine, preparation method therefor, and application thereof” (HANGZHOU BENSHENG PHARMACEUTICAL CO., LTD., priority 2011, dated 2016)
# Tests used:
# [1] = tested on: RPMI8226 (multiple myeloma); assay: MTT growth inhibition of multiple myeloma cells, 72 h; type: cell-based, human
# Protocol: Multiple myeloma and lymphoma cell lines: RPMI8226 (multiple myeloma), purchased from Fuxiang Bio-tech Co. Ltd., Shanghai, China.
# (§1) Obtaining 6000 well-growing leukemia cells and inoculating them into wells of a 96-well cell culture plate. The culture medium is the 1640 cell culture medium containing 10% fetal bovine serum. After adding the homoharringtonine derivatives of different concentrations and mixing uniformly, placing the plate in a carbon dioxide cell incubator (5% CO2) at 37° C. and incubated for 72 hours. Then the viable cell concentration is determined by the MTT method. In this experiment, the cell viability in control group (not treated with any compound) is set as 100%. On such basis, the cell viability (%) after treatment and the 50% inhibiting concentration of the compound for the leukemia cell growth at 72 hours (IC50 value of 72 hours) are calculated.
# [2] = tested on: RKO (human colon adenocarcinoma cell); assay: MTT growth inhibition of human solid tumor cells, 72 h; type: cell-based; conditions: MTT
# Protocol: (§2) Human solid tumor cell lines: Hep-2 (laryngeal carcinoma), A549 (human lung cancer), CaES-17 (esophageal cancer cell), PC-3 (prostate cancer), CNE (nasopharyngeal carcinoma cell), and SK-OV-3 (ovarian cancer cell), all of which are purchased from China Center For Type Culture Collection; RKO (human colon adenocarcinoma cell), MGC 803 (human gastric cancer cell), MG63 (osteosarcoma) and U87 MG (malignant glioma cell), all of which are purchased from Fuxiang Bio-tech Co. Ltd., Shanghai, China; PANC-1 (pancreatic cancer), Huh7 (human liver cancer cell), Becap37 (human breast cancer cell), and Hela (human cervical cancer cell), all of which are donated by Cancer Research Institute of Zhejiang University, China.
# (§3) Obtaining 4000 well-growing human solid tumor cells and inoculating them into wells of a 96-well cell culture plate. The culture medium is DMEM High Glucose cell culture medium containing 10% fetal bovine serum. The plate is placed in a carbon dioxide cell incubator (5% CO2) at 37° C. and incubated for 24 hours. After adding the homoharringtonine derivatives of different concentration and mixing uniformly, the plate is placed in a carbon dioxide cell incubator (5% CO2) at 37° C. and incubated for 72 hours. Then the viable cell concentration is determined by the MTT method and the cell viability (%) after drug treatment is calculated. In this experiment, the cell viability of control group (not treated with any compound) is set as 100%.
# [3] = tested on: U87 MG (malignant glioma cell); assay: as above; type: cell-based
# Protocol: as §2, §3
# [4] = tested on: Huh7 (human liver cancer cell); assay: as above; type: cell-based
# Protocol: as §2, §3
# [5] = tested on: CaES-17 (esophageal cancer cell); assay: as above; type: cell-based
# Protocol: as §2, §3
# [6] = tested on: PANC-1 (pancreatic cancer); assay: as above; type: cell-based
# Protocol: as §2, §3
# [7] = tested on: Becap37 (human breast cancer cell); assay: as above; type: cell-based
# Protocol: as §2, §3
# [8] = tested on: Hep-2 (laryngeal carcinoma); assay: as above; type: cell-based
# Protocol: as §2, §3
# MG63 (osteosarcoma) = assay: as above; type: cell-based
# Protocol: as §2, §3
# PC-3 (prostate cancer) = assay: as above; type: cell-based; conditions: MTT
# Protocol: as §2, §3
# [9] = tested on: Hela (human cervical cancer cell); assay: as above; type: cell-based; conditions: MTT
# Protocol: as §2, §3
# [10] = tested on: CNE (nasopharyngeal carcinoma cell); assay: as above; type: cell-based; conditions: MTT
# Protocol: as §2, §3
# A549 (human lung cancer) = assay: as above; type: cell-based
# Protocol: as §2, §3
# [11] = tested on: MGC 803 (human gastric cancer cell); assay: as above; type: cell-based
# Protocol: as §2, §3
# [12] = tested on: SK-OV-3 (ovarian cancer cell); assay: as above; type: cell-based
# Protocol: as §2, §3
# [13] = tested on: NB4 (acute promyelocytic leukemia, AML); assay: MTT growth inhibition of leukemia cells, 72 h; type: cell-based, human; conditions: MTT
# Description: (§4) Leukemia cell lines: leukemia cell lines: K562/adr (drug-resistant, chronic myeloid leukemia, CML), NB4 (acute promyelocytic leukemia, AML), Kasumi-1 (acute myeloid leukemia M2 type, AML-M2), Jurkat (acute lymphoblastic leukemia, ALL), all of which are donated by Cancer Research Institute of Zhejiang University, China; and H9 (acute lymphoblastic leukemia, ALL), which is purchased from China Center for Type Culture Collection (CCTCC).
# (§5) Reagents: The standard sample of homoharringtonine (HHT) is purchased from Taihua Natural Plant Pharmaceutical Co., Ltd., Shaanxi, China, the homoharringtonine derivatives of the present invention.
# as §1
# [14] = tested on: Jurkat (acute lymphoblastic leukemia, ALL); assay: MTT growth inhibition of leukemia cells, 72 h; type: cell-based, human
# Description: as §4, §5, §1
# [15] = tested on: Kasumi-1 (acute myeloid leukemia M2 type, AML-M2); assay: MTT growth inhibition of leukemia cells, 72 h; type: cell-based, human
# Description: as §4, §5, §1
# [16] = tested on: K562/adr (drug-resistant, chronic myeloid leukemia, CML); assay: MTT growth inhibition of leukemia cells, 72 h; type: cell-based, human; conditions: MTT
# Description: as §4, §5, §1
# [17] = tested on: H9 (acute lymphoblastic leukemia, ALL); assay: MTT growth inhibition of leukemia cells, 72 h; type: cell-based, human; conditions: MTT
# Description: as §4, §5, §1
smiles,measurement,setting,value
COC(=O)C[C@@](CCCC(C)(C)OC(=O)/C=C/c1ccco1)(OC(=O)/C=C/c1ccco1)C(=O)O[C@@H]1C(OC)=C[C@]23CCCN2CCc2cc4c(cc2[C@H]13)OCO4 [BS-HH-0022],IC50 RPMI8226,[1]; MTT,0.12 µg/mL
same,IC90 RPMI8226,[1]; MTT,0.63 µg/mL
same,IC50 RKO,[2],0.044 µg/mL
same,IC90 RKO,[2],0.35 µg/mL
same,IC50 U87 MG,[3],0.16 µg/mL
same,IC90 U87 MG,[3],0.59 µg/mL
same,IC50 Huh7,[4],0.13 µg/mL
same,IC90 Huh7,[4],0.99 µg/mL
same,IC50 CaES-17,[5],0.61 µg/mL
same,IC90 CaES-17,[5],>16 µg/mL
same,IC50 PANC-1,[6]; MTT,0.69 µg/mL
same,IC90 PANC-1,[6]; MTT,15.56 µg/mL
same,IC50 Becap37,[7],0.23 µg/mL
same,IC90 Becap37,[7],11.14 µg/mL
same,IC50 Hep-2,[8],0.22 µg/mL
same,IC90 Hep-2,[8],>16 µg/mL
same,IC50 MG 63,MG63 (osteosarcoma); MTT,0.24 µg/mL
same,IC90 MG 63,MG63 (osteosarcoma); MTT,3.25 µg/mL
same,IC50 PC-3,PC-3 (prostate cancer),1.37 µg/mL
same,IC90 PC-3,PC-3 (prostate cancer),>16 µg/mL
same,IC50 Hela,[9],0.33 µg/mL
same,IC90 Hela,[9],9.38 µg/mL
same,IC50 CNE,[10],0.21 µg/mL
same,IC90 CNE,[10],16 µg/mL
same,IC50 A549,A549 (human lung cancer),0.23 µg/mL
same,IC90 A549,A549 (human lung cancer),>16 µg/mL
same,IC50 MGC 803,[11],0.16 µg/mL
same,IC90 MGC 803,[11],0.76 µg/mL
same,IC50 SK-OV-3,[12]; MTT,1.33 µg/mL
same,IC90 SK-OV-3,[12]; MTT,>16 µg/mL
same,IC50 NB4,[13],0.08 µg/mL
same,IC90 NB4,[13],0.25 µg/mL
same,IC50 Jurkat,[14],0.088 µg/mL
same,IC90 Jurkat,[14],10.13 µg/mL
same,IC50 Kasumi-1,[15]; MTT,0.063 µg/mL
same,IC90 Kasumi-1,[15]; MTT,0.22 µg/mL
same,IC50 K562/adr,[16],0.41 µg/mL
same,IC90 K562/adr,[16],1.84 µg/mL
same,IC50 H9,[17],0.19 µg/mL
same,IC90 H9,[17],0.4 µg/mL
COC(=O)C[C@@](CCCC(C)(C)OC(=O)c1cccs1)(OC(=O)c1cccs1)C(=O)O[C@@H]1C(OC)=C[C@]23CCCN2CCc2cc4c(cc2[C@H]13)OCO4 [BS-HH-0572],IC50,"[1]; Homo sapiens, RPMI-8226, MTT",0.155 µg/mL
same,IC90,"[1]; Homo sapiens, RPMI-8226, MTT",1.13 µg/mL
same,IC50,[2]; Homo sapiens,0.12 µg/mL
same,IC90,[2]; Homo sapiens,0.56 µg/mL
same,IC50,"[3]; Homo sapiens, U-87 MG",0.23 µg/mL
same,IC90,"[3]; Homo sapiens, U-87 MG",0.99 µg/mL
same,IC50,"[4]; Homo sapiens, Huh-7",0.17 µg/mL
same,IC90,"[4]; Homo sapiens, Huh-7",1.7 µg/mL
same,IC50,"[5]; Homo sapiens, CaEs17",0.74 µg/mL
same,IC90,"[5]; Homo sapiens, CaEs17",16 µg/mL
same,IC50,"[6]; Homo sapiens, PANC-1, MTT",0.43 µg/mL
same,IC90,"[6]; Homo sapiens, PANC-1, MTT",12.6 µg/mL
same,IC50,[7]; Homo sapiens,0.2 µg/mL
same,IC90,[7]; Homo sapiens,9.75 µg/mL
same,IC50,"[8]; Homo sapiens, HEp-2",0.23 µg/mL
same,IC90,"[8]; Homo sapiens, HEp-2",> 16 µg/mL
same,IC50,"MG63 (osteosarcoma); Homo sapiens, MG-63, MTT",0.2 µg/mL
same,IC90,"MG63 (osteosarcoma); Homo sapiens, MG-63, MTT",4.75 µg/mL
same,IC50,PC-3 (prostate cancer); Homo sapiens,1.84 µg/mL
same,IC90,PC-3 (prostate cancer); Homo sapiens,> 16 µg/mL
same,IC50,"[9]; Homo sapiens, HeLa",0.45 µg/mL
same,IC90,"[9]; Homo sapiens, HeLa",11.5 µg/mL
same,IC50,[10]; Homo sapiens,0.35 µg/mL
same,IC90,[10]; Homo sapiens,14.3 µg/mL
same,IC50,"A549 (human lung cancer); Homo sapiens, A549",0.48 µg/mL
same,IC90,"A549 (human lung cancer); Homo sapiens, A549",> 16 µg/mL
same,IC50,"[11]; Homo sapiens, MGC-803",0.24 µg/mL
same,IC90,"[11]; Homo sapiens, MGC-803",1.62 µg/mL
same,IC50,"[12]; Homo sapiens, SK-OV-3, MTT",0.98 µg/mL
same,IC90,"[12]; Homo sapiens, SK-OV-3, MTT",> 16 µg/mL
same,IC50,[13]; Homo sapiens,0.12 µg/mL
same,IC90,[13]; Homo sapiens,0.4 µg/mL
same,IC50,"[14]; Homo sapiens, Jurkat",0.11 µg/mL
same,IC90,"[14]; Homo sapiens, Jurkat",7.5 µg/mL
same,IC50,"[15]; Homo sapiens, Kasumi 1, MTT",0.065 µg/mL
same,IC90,"[15]; Homo sapiens, Kasumi 1, MTT",0.4 µg/mL
same,IC50,"[16]; Homo sapiens, K562/Adr",0.32 µg/mL
same,IC90,"[16]; Homo sapiens, K562/Adr",16 µg/mL
same,IC50,[17]; Homo sapiens,0.21 µg/mL
same,IC90,[17]; Homo sapiens,0.48 µg/mL
